Measured values reported in PubChem BioAssay (NCI).
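Growth conditions: 96-well plates. Treatment: test compound, 48 hours, 5 concentrations. Analysis: linear interpolation between bracketing concentrations; unreached endpoints set to highest concentration. GI50 marks 50% less growth. The concentration for full growth arrest is given as TGI.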

Experiments:
Test in all cases: NCI-60 cell line screen, 48 h; in the data active means GI50 below about 0.43 µM; inactive means the rest
HOP-62 NSCLC = tested on: HOP-62 NSCLC
HCC-2998 colon = tested on: HCC-2998 colon
SF-268 CNS = tested on: SF-268 CNS
RXF 393 renal = tested on: RXF 393 renal
SK-OV-3 ovarian = tested on: SK-OV-3 ovarian
OVCAR-3 ovarian = tested on: OVCAR-3 ovarian
ACHN renal = tested on: ACHN renal
UACC-62 melanoma = tested on: UACC-62 melanoma
NCI-H23 lung = tested on: NCI-H23 lung
OVCAR-4 ovarian = tested on: OVCAR-4 ovarian
SF-295 CNS = tested on: SF-295 CNS
NCI-H522 lung = tested on: NCI-H522 lung
786-0 renal = tested on: 786-0 renal
BT-549 breast = tested on: BT-549 breast
TK-10 renal = tested on: TK-10 renal
NCI/ADR-RES ovarian = tested on: NCI/ADR-RES ovarian
U251 CNS = tested on: U251 CNS
UO-31 renal = tested on: UO-31 renal
K-562 leukemia = tested on: K-562 leukemia
LOX IMVI melanoma = tested on: LOX IMVI melanoma
NCI-H460 lung = tested on: NCI-H460 lung
MCF7 breast = tested on: MCF7 breast
RPMI-8226 leukemia = tested on: RPMI-8226 leukemia
UACC-257 melanoma = tested on: UACC-257 melanoma
OVCAR-5 ovarian = tested on: OVCAR-5 ovarian
SW-620 colon = tested on: SW-620 colon
MDA-MB-435 = tested on: MDA-MB-435
CCRF-CEM leukemia = tested on: CCRF-CEM leukemia
HL-60(TB) leukemia = tested on: HL-60(TB) leukemia
SK-MEL-28 melanoma = tested on: SK-MEL-28 melanoma
OVCAR-8 ovarian = tested on: OVCAR-8 ovarian
DU-145 prostate = tested on: DU-145 prostate
EKVX NSCLC = tested on: EKVX NSCLC
HCT-15 colon = tested on: HCT-15 colon
KM12 colon = tested on: KM12 colon
SR leukemia = tested on: SR leukemia
CAKI-1 renal = tested on: CAKI-1 renal
SF-539 CNS = tested on: SF-539 CNS
COLO 205 colon = tested on: COLO 205 colon
HS 578T breast = tested on: HS 578T breast
NCI-H226 lung = tested on: NCI-H226 lung
SK-MEL-2 melanoma = tested on: SK-MEL-2 melanoma
MDA-MB-231 breast = tested on: MDA-MB-231 breast
HCT-116 colon = tested on: HCT-116 colon
M14 melanoma = tested on: M14 melanoma
SK-MEL-5 melanoma = tested on: SK-MEL-5 melanoma
SN12C renal = tested on: SN12C renal
PC-3 prostate = tested on: PC-3 prostate
HOP-92 NSCLC = tested on: HOP-92 NSCLC
SNB-19 CNS = tested on: SNB-19 CNS
A549 NSCLC = tested on: A549 NSCLC
MOLT-4 leukemia = tested on: MOLT-4 leukemia
IGROV1 ovarian = tested on: IGROV1 ovarian
SNB-75 CNS = tested on: SNB-75 CNS
A498 renal = tested on: A498 renal
MALME-3M melanoma = tested on: MALME-3M melanoma
HT29 colon = tested on: HT29 colon
T-47D breast = tested on: T-47D breast

CCSc1nc(SCC)c2c(-c3ccc(OC)c(OC)c3)c(C#N)c(SCC)nc2n1
54.6 µM: TGI (NCI-H226 lung)
25.3 µM: TGI (CAKI-1 renal)
45 µM: TGI (NCI/ADR-RES ovarian)
38 µM: TGI (ACHN renal)
43.4 µM: TGI (UACC-62 melanoma)
53.1 µM: TGI (NCI-H23 lung)
77.4 µM: TGI (SF-268 CNS)
19.7 µM: TGI (HS 578T breast)
63.2 µM: TGI (HOP-62 NSCLC)
79.1 µM: TGI (A549 NSCLC)
59.1 µM: TGI (786-0 renal)
49.2 µM: TGI (HCC-2998 colon)
57.8 µM: TGI (MDA-MB-435)
56.7 µM: TGI (SN12C renal)
47.7 µM: TGI (OVCAR-5 ovarian)
48.3 µM: TGI (U251 CNS)
47.8 µM: TGI (DU-145 prostate)
42 µM: TGI (MDA-MB-231 breast)
76.7 µM: TGI (HOP-92 NSCLC)
> 100 µM: TGI (RXF 393 renal) | TGI (SK-OV-3 ovarian) | TGI (OVCAR-4 ovarian) | TGI (NCI-H522 lung) | TGI (BT-549 breast) | TGI (UO-31 renal) | TGI (K-562 leukemia) | TGI (NCI-H460 lung) | TGI (MCF7 breast) | TGI (UACC-257 melanoma) | TGI (SW-620 colon) | TGI (CCRF-CEM leukemia) | TGI (HL-60(TB) leukemia) | TGI (SK-MEL-28 melanoma) | TGI (OVCAR-8 ovarian) | TGI (KM12 colon) | TGI (SR leukemia) | TGI (COLO 205 colon) | TGI (SK-MEL-2 melanoma) | TGI (HCT-116 colon) | TGI (M14 melanoma) | TGI (PC-3 prostate) | TGI (SNB-19 CNS) | TGI (MOLT-4 leukemia) | TGI (IGROV1 ovarian)
53.3 µM: TGI (TK-10 renal) | TGI (EKVX NSCLC)
17.2 µM: TGI (SF-539 CNS)
94.4 µM: TGI (RPMI-8226 leukemia)
39.9 µM: TGI (SF-295 CNS)
61.2 µM: TGI (HCT-15 colon)
inactive: GI50 (HOP-62 NSCLC) 22.6 µM | GI50 (HCC-2998 colon) 21 µM | GI50 (SF-268 CNS) 14.2 µM | GI50 (RXF 393 renal) 59.7 µM | GI50 (SK-OV-3 ovarian) > 100 µM | GI50 (OVCAR-3 ovarian) 10.5 µM | GI50 (ACHN renal) 17.8 µM | GI50 (UACC-62 melanoma) 18.5 µM | GI50 (NCI-H23 lung) 14.9 µM | GI50 (OVCAR-4 ovarian) 31.8 µM | GI50 (SF-295 CNS) 12.9 µM | GI50 (NCI-H522 lung) 41.1 µM | GI50 (786-0 renal) 18.7 µM | GI50 (BT-549 breast) 23.5 µM | GI50 (TK-10 renal) 17.5 µM | GI50 (NCI/ADR-RES ovarian) 14.4 µM | GI50 (U251 CNS) 22.7 µM | GI50 (UO-31 renal) 32.9 µM | GI50 (K-562 leukemia) 85.1 µM | GI50 (LOX IMVI melanoma) 22.9 µM | GI50 (NCI-H460 lung) 21.8 µM | GI50 (MCF7 breast) 14.8 µM | GI50 (RPMI-8226 leukemia) 8.38 µM | GI50 (UACC-257 melanoma) 39.4 µM | GI50 (OVCAR-5 ovarian) 18.8 µM | GI50 (SW-620 colon) 61.1 µM | GI50 (MDA-MB-435) 18.7 µM | GI50 (CCRF-CEM leukemia) 83.7 µM | GI50 (HL-60(TB) leukemia) 81.1 µM | GI50 (SK-MEL-28 melanoma) 41.8 µM | GI50 (OVCAR-8 ovarian) 43.8 µM | GI50 (DU-145 prostate) 17.7 µM | GI50 (EKVX NSCLC) 17.4 µM | GI50 (HCT-15 colon) 24.6 µM | GI50 (KM12 colon) 43.1 µM | GI50 (SR leukemia) 26.5 µM | GI50 (CAKI-1 renal) 5.39 µM | GI50 (SF-539 CNS) 1.95 µM | GI50 (COLO 205 colon) 91.5 µM | GI50 (HS 578T breast) 3 µM | GI50 (NCI-H226 lung) 20.5 µM | GI50 (SK-MEL-2 melanoma) 63.8 µM | GI50 (MDA-MB-231 breast) 13 µM | GI50 (HCT-116 colon) 30.3 µM | GI50 (M14 melanoma) 56.2 µM | GI50 (SK-MEL-5 melanoma) 26.6 µM | GI50 (SN12C renal) 21.7 µM | GI50 (PC-3 prostate) 26.6 µM | GI50 (HOP-92 NSCLC) 23.2 µM | GI50 (SNB-19 CNS) 47.7 µM | GI50 (A549 NSCLC) 30.4 µM | GI50 (MOLT-4 leukemia) 68.5 µM | GI50 (IGROV1 ovarian) 33.5 µM
60.1 µM: TGI (LOX IMVI melanoma)
32.5 µM: TGI (OVCAR-3 ovarian)
78.8 µM: TGI (SK-MEL-5 melanoma)

Cc1[nH]c(=O)nc(Nc2ccc(Cl)cc2)c1C(=O)N1CCN(CCO)CC1
83.1 µM: TGI (SK-OV-3 ovarian)
71.6 µM: TGI (HOP-92 NSCLC)
52.3 µM: TGI (SNB-75 CNS)
77.4 µM: TGI (HOP-62 NSCLC)
76.8 µM: TGI (RXF 393 renal)
inactive: GI50 (SNB-75 CNS) 21.7 µM | GI50 (HOP-62 NSCLC) 27.2 µM | GI50 (HCC-2998 colon) > 100 µM | GI50 (SF-268 CNS) 65 µM | GI50 (RXF 393 renal) 24.4 µM | GI50 (SK-OV-3 ovarian) 29.8 µM | GI50 (OVCAR-3 ovarian) > 100 µM | GI50 (ACHN renal) > 100 µM | GI50 (UACC-62 melanoma) 94.8 µM | GI50 (NCI-H23 lung) 76 µM | GI50 (OVCAR-4 ovarian) > 100 µM | GI50 (SF-295 CNS) 32.1 µM | GI50 (NCI-H522 lung) 59.8 µM | GI50 (786-0 renal) 50.7 µM | GI50 (BT-549 breast) 53.8 µM | GI50 (TK-10 renal) 77.7 µM | GI50 (A498 renal) 42.2 µM | GI50 (NCI/ADR-RES ovarian) > 100 µM | GI50 (U251 CNS) 37.6 µM | GI50 (UO-31 renal) > 100 µM | GI50 (K-562 leukemia) > 100 µM | GI50 (LOX IMVI melanoma) > 100 µM | GI50 (NCI-H460 lung) > 100 µM | GI50 (MCF7 breast) > 100 µM | GI50 (RPMI-8226 leukemia) > 100 µM | GI50 (UACC-257 melanoma) > 100 µM | GI50 (OVCAR-5 ovarian) > 100 µM | GI50 (SW-620 colon) > 100 µM | GI50 (MDA-MB-435) > 100 µM | GI50 (CCRF-CEM leukemia) > 100 µM | GI50 (HL-60(TB) leukemia) > 100 µM | GI50 (SK-MEL-28 melanoma) > 100 µM | GI50 (OVCAR-8 ovarian) 72 µM | GI50 (DU-145 prostate) > 100 µM | GI50 (EKVX NSCLC) > 100 µM | GI50 (HCT-15 colon) > 100 µM | GI50 (KM12 colon) > 100 µM | GI50 (CAKI-1 renal) > 100 µM | GI50 (SF-539 CNS) 75.9 µM | GI50 (COLO 205 colon) > 100 µM | GI50 (HS 578T breast) 34.2 µM | GI50 (NCI-H226 lung) > 100 µM | GI50 (MDA-MB-231 breast) 46.3 µM | GI50 (HCT-116 colon) 81.9 µM | GI50 (M14 melanoma) > 100 µM | GI50 (SK-MEL-5 melanoma) > 100 µM | GI50 (SN12C renal) > 100 µM | GI50 (MALME-3M melanoma) 29.9 µM | GI50 (PC-3 prostate) > 100 µM | GI50 (HT29 colon) > 100 µM | GI50 (T-47D breast) 84.2 µM | GI50 (HOP-92 NSCLC) 28.7 µM | GI50 (SNB-19 CNS) 33.8 µM | GI50 (A549 NSCLC) > 100 µM | GI50 (MOLT-4 leukemia) > 100 µM | GI50 (IGROV1 ovarian) > 100 µM
> 100 µM: TGI (HCC-2998 colon) | TGI (SF-268 CNS) | TGI (OVCAR-3 ovarian) | TGI (ACHN renal) | TGI (UACC-62 melanoma) | TGI (NCI-H23 lung) | TGI (OVCAR-4 ovarian) | TGI (SF-295 CNS) | TGI (NCI-H522 lung) | TGI (786-0 renal) | TGI (BT-549 breast) | TGI (TK-10 renal) | TGI (A498 renal) | TGI (NCI/ADR-RES ovarian) | TGI (U251 CNS) | TGI (UO-31 renal) | TGI (K-562 leukemia) | TGI (LOX IMVI melanoma) | TGI (NCI-H460 lung) | TGI (MCF7 breast) | TGI (RPMI-8226 leukemia) | TGI (UACC-257 melanoma) | TGI (OVCAR-5 ovarian) | TGI (SW-620 colon) | TGI (MDA-MB-435) | TGI (CCRF-CEM leukemia) | TGI (HL-60(TB) leukemia) | TGI (SK-MEL-28 melanoma) | TGI (OVCAR-8 ovarian) | TGI (DU-145 prostate) | TGI (EKVX NSCLC) | TGI (HCT-15 colon) | TGI (KM12 colon) | TGI (CAKI-1 renal) | TGI (SF-539 CNS) | TGI (COLO 205 colon) | TGI (HS 578T breast) | TGI (NCI-H226 lung) | TGI (MDA-MB-231 breast) | TGI (HCT-116 colon) | TGI (M14 melanoma) | TGI (SK-MEL-5 melanoma) | TGI (SN12C renal) | TGI (MALME-3M melanoma) | TGI (PC-3 prostate) | TGI (HT29 colon) | TGI (T-47D breast) | TGI (SNB-19 CNS) | TGI (A549 NSCLC) | TGI (MOLT-4 leukemia) | TGI (IGROV1 ovarian)
